21 compounds from patent US10022376B2 (Pfizer Inc., priority 2014, dated 2018) can be followed below.

Each structure is given as a SMILES string.

As usually defined, the IC50 is the midpoint of a concentration-inhibition curve.

The assay has as its system rhIFNγ stimulated STAT-3 phosphorylation in the A549 human epithelial cell line. The assay can be described thus: A549 Cell Assay: Inhibition of pSTAT3. It is filed as cell-based. The settings on record: Homo sapiens; A549 cells. How it is done: A549 Cell Assay: Inhibition of pSTAT3
An assay measuring the efficacy of JAK inhibitors on the functional response of recombinant human interferon γ (rhIFNγ) stimulated STAT-3 phosphorylation in the A549 human epithelial cell line.
A549 cells (ATCC #CCL-185), were plated at 30,000 cells/well in 96 well flat bottomed tissue culture plates (BD#353072) in 200 μL of growth medium (DMEM, Pfizer media prep, with 10% Fetal Bovine Serum, Sigma #F4135, 2 mM L-Glutamine, Pfizer media prep, 100 U/mL penicillin, Pfizer media prep, and 200 μg/ml streptomycin, Pfizer media prep), and cultured at 37° C., 5% CO2 incubator for 18 hours. Growth medium was removed by vacuum aspiration (V&P Scientific #vp187 bp-60), and 90 μL of pre-warmed assay medium (DMEM with 0.2% BSA, Miltenyi #130-091-376) was added to each well and incubated for 15 minutes at 37° C. 10 μL of vehicle control or test compound (final concentration range of 0.3 nM to 10 μM with 0.1% DMSO) was added to the cells. Plates were incubated at 37° C. for 1 hour. After compound incubation, 10 μL of 220 ng/mL recombinant human IFNγ (R&D Systems #285-IF, final rhIFNγ concentration of 20 ng/mL) was added to the cells and plates were incubated for 30 minutes at 37° C. Wells containing A549 cells, medium with 0.1% DMSO and no rhIFNγ were used as background controls. After rhIFNγ stimulation, media was aspirated from each well and 35 μL/well of iced-cold MSD lysis buffer containing protease and phosphatase inhibitors from Phospho-STAT3 Tyr705 assay kit (Meso-Scale Discovery #K150DID) was added to each well. Plates were incubated at 4° C. with shaking for 30 minutes. Cell lysates were assayed following the MSD Phospho-STAT3 Tyr705 assay kit protocol to detect pSTAT3.
Data were collected and transformed into percent inhibition and calculated using the following formula: […]
As for `CNC(=O)c1n[nH]c2cc(-c3cc(F)c(O)cc3CC(F)(F)F)nc(NCc3ncccc3N(C)S(C)(=O)=O)c12` [Example 55, 6-[5-Fluoro-4-hydroxy-2-(2,2,2-trifluoroethyl)phenyl]-N-methyl-4-[({3-[methyl(methylsulfonyl)amino]pyridin-2-yl}methyl)amino]-1H-pyrazolo[4,3-c]pyridine-3-carboxamide], 0.156 µM corresponded to half-maximal inhibition (IC50). This counts as sub-micromolar. `CNC(=O)c1n[nH]c2cc(-c3cc(F)c(O)cc3CC(F)(F)F)nc(NCc3ccccc3N(C)S(=O)(=O)c3cn[nH]c3)c12` [Example 58, 6-(5-fluoro-4-hydroxy-2-(2,2,2-trifluoroethyl)phenyl)-N-methyl-4-((2-(N-methyl-1H-pyrazole-4-sulfonamido)benzyl)amino)-1H-pyrazolo[4,3-c]pyridine-3-carboxamide] came in with an IC50 of 0.174 µM. Regarding `CNC(=O)c1n[nH]c2cc(-c3cc(F)c(O)cc3CC(F)(F)F)nc(NCc3ccccc3N(C)S(=O)(=O)CCOC)c12` [Example 60, 6-[5-fluoro-4-hydroxy-2-(2,2,2-trifluoroethyl)phenyl]-4-[(2-{[(2-methoxyethyl)sulfonyl](methyl)amino}benzyl)amino]-N-methyl-1H-pyrazolo[4,3-c]pyridine-3-carboxamide], it took 0.0344 µM to reach half-maximal inhibition (IC50). The value for `CN(c1ccccc1CNc1nc(-c2cc(F)c(O)cc2CC(F)(F)F)cc2[nH]nc(C(N)=O)c12)S(=O)(=O)c1cccnc1` [Example 61, 6-[5-fluoro-4-hydroxy-2-(2,2,2-trifluoroethyl)phenyl]-4-({2-[methyl(pyridin-3-ylsulfonyl)amino]benzyl}amino)-1H-pyrazolo[4,3-c]pyridine-3-carboxamide] was 0.0712 µM; that for `CN(c1ncccc1CNc1nc(-c2cc(F)c(O)cc2CC(F)(F)F)cc2[nH]nc(C(N)=O)c12)S(C)(=O)=O` [Example 62, 6-[5-fluoro-4-hydroxy-2-(2,2,2-trifluoroethyl)phenyl]-4-[({2-[methyl(methylsulfonyl)amino]pyridin-3-yl}methyl)amino]-1H-pyrazolo[4,3-c]pyridine-3-carboxamide] was 0.0718 µM; that for `CCN(c1ncccc1CNc1nc(-c2cc(F)c(O)cc2CC(F)(F)F)cc2[nH]nc(C(=O)NC)c12)S(C)(=O)=O` [Example 63, 4-[({2-[ethyl(methylsulfonyl)amino]pyridin-3-yl}methyl)amino]-6-[5-fluoro-4-hydroxy-2-(2,2,2-trifluoroethyl)phenyl]-N-methyl-1H-pyrazolo[4,3-c]pyridine-3-carboxamide] was 0.0146 µM. `CNC(=O)c1n[nH]c2cc(-c3cc(F)c(O)cc3CC(F)(F)F)nc(NCc3ccccc3CS(N)(=O)=O)c12` [Example 64, 6-[5-fluoro-4-hydroxy-2-(2,2,2-trifluoroethyl)phenyl]-N-methyl-4-{[2-(sulfamoylmethyl)benzyl]amino}-1H-pyrazolo[4,3-c]pyridine-3-carboxamide] displayed a concentration for half-maximal inhibition (IC50) of 0.213 µM.

`CN(c1ccccc1CNc1nc(-c2cc(F)c(O)cc2CC(F)(F)F)cc2[nH]nc(C(N)=O)c12)S(=O)(=O)c1ccc(N2CCOCC2)nc1` [Example 65, 6-[5-fluoro-4-hydroxy-2-(2,2,2-trifluoroethyl)phenyl]-4-{[2-(methyl{[6-(morpholin-4-yl)pyridin-3-yl]sulfonyl}amino)benzyl]amino}-1H-pyrazolo[4,3-c]pyridine-3-carboxamide] came in with an IC50 of 0.161 µM.

Consider `CN(c1ccccc1CNc1nc(-c2cc(F)c(O)cc2CC(F)(F)F)cc2[nH]nc(C(N)=O)c12)S(=O)(=O)CCCN1CCOCC1` [Example 66, 6-[5-fluoro-4-hydroxy-2-(2,2,2-trifluoroethyl)phenyl]-4-{[2-(methyl{[3-(morpholin-4-yl)propyl]sulfonyl}amino)benzyl]amino}-1H-pyrazolo[4,3-c]pyridine-3-carboxamide], for which the concentration for half-maximal inhibition (IC50) was 0.221 µM. `CNC(=O)c1n[nH]c2cc(-c3cc(F)c(O)cc3CC(F)(F)F)nc(NCc3cc(C)cnc3N(C)S(C)(=O)=O)c12` [Example 67, 6-[5-fluoro-4-hydroxy-2-(2,2,2-trifluoroethyl)phenyl]-N-methyl-4-[({5-methyl-2-[methyl(methylsulfonyl)amino]pyridin-3-yl}methyl)amino]-1H-pyrazolo[4,3-c]pyridine-3-carboxamide] registered a half-inhibitory concentration (IC50) of 0.104 µM. Compared with the last compound, the IC50 is about 2.1-fold lower. For `CNC(=O)c1n[nH]c2cc(-c3cc(F)c(O)cc3CC(F)(F)F)nc(NCc3ccccc3N(C)S(=O)(=O)c3cccnc3)c12` [Example 68, 6-[5-fluoro-4-hydroxy-2-(2,2,2-trifluoroethyl)phenyl]-N-methyl-4-({2-[methyl(pyridin-3-ylsulfonyl)amino]benzyl}amino)-1H-pyrazolo[4,3-c]pyridine-3-carboxamide], half-maximal inhibition (IC50) was put at 0.0439 µM.

`CNC(=O)c1n[nH]c2cc(-c3cc(F)c(O)cc3CC(F)(F)F)nc(NCc3ccccc3N(C)S(=O)(=O)c3ccc(C)nc3)c12` [Example 69, 6-[5-fluoro-4-hydroxy-2-(2,2,2-trifluoroethyl)phenyl]-N-methyl-4-[(2-{methyl[(6-methylpyridin-3-yl)sulfonyl]amino}benzyl)amino]-1H-pyrazolo[4,3-c]pyridine-3-carboxamide] displayed an IC50 of 0.0916 µM.

Compound `Cc1ccc(S(=O)(=O)N(C)c2ccccc2CNc2nc(-c3cc(F)c(O)cc3CC(F)(F)F)cc3[nH]nc(C(N)=O)c23)cn1` [Example 70, 6-[5-fluoro-4-hydroxy-2-(2,2,2-trifluoroethyl)phenyl]-4-[(2-{methyl[(6-methylpyridin-3-yl)sulfonyl]amino}benzyl)amino]-1H-pyrazolo[4,3-c]pyridine-3-carboxamide] registered an IC50 of 0.0462 µM. The value for `CCN(c1ncc(Cl)cc1CNc1nc(-c2cc(F)c(O)cc2CC(F)(F)F)cc2[nH]nc(C(N)=O)c12)S(C)(=O)=O` [Example 71, 4-[({5-chloro-2-[ethyl(methylsulfonyl)amino]pyridin-3-yl}methyl)amino]-6-[5-fluoro-4-hydroxy-2-(2,2,2-trifluoroethyl)phenyl]-1H-pyrazolo[4,3-c]pyridine-3-carboxamide] was 0.11 µM; that for `CN(c1ncc(Cl)cc1CNc1nc(-c2cc(F)c(O)cc2CC(F)(F)F)cc2[nH]nc(C(N)=O)c12)S(C)(=O)=O` [Example 72, 4-[({5-chloro-2-[methyl(methylsulfonyl)amino]pyridin-3-yl}methyl)amino]-6-[5-fluoro-4-hydroxy-2-(2,2,2-trifluoroethyl)phenyl]-1H-pyrazolo[4,3-c]pyridine-3-carboxamide] was 0.0941 µM; that for `CCc1cc(O)c(F)cc1-c1cc2[nH]nc(C(=O)NC)c2c(NCc2ccccc2N(C)S(N)(=O)=O)n1` [Example 73, 6-(2-ethyl-5-fluoro-4-hydroxyphenyl)-N-methyl-4-({2-[methyl(sulfamoyl)amino]benzyl}amino)-1H-pyrazolo[4,3-c]pyridine-3-carboxamide] was 0.0356 µM. Turning to `CN(c1ncc(F)cc1CNc1nc(-c2cc(F)c(O)cc2CC(F)(F)F)cc2[nH]nc(C(N)=O)c12)S(C)(=O)=O` [Example 78, 6-[5-Fluoro-4-hydroxy-2-(2,2,2-trifluoroethyl)phenyl]-4-[({5-fluoro-2-[methyl(methyl-sulfonyl)amino]pyridin-3-yl}methyl)amino]-1H-pyrazolo[4,3-c]pyridine-3-carboxamide], it took 0.0272 µM to reach half-maximal inhibition (IC50).

The compound `CCN(c1ncc(F)cc1CNc1nc(-c2cc(F)c(O)cc2CC(F)(F)F)cc2[nH]nc(C(N)=O)c12)S(C)(=O)=O` [Example 79, 4-[({2-[ethyl(methylsulfonyl)amino]-5-fluoropyridin-3-yl}methyl)amino]-6-[5-fluoro-4-hydroxy-2-(2,2,2-trifluoroethyl)phenyl]-1H-pyrazolo[4,3-c]pyridine-3-carboxamide] yielded a concentration for half-maximal inhibition (IC50) of 0.0307 µM. The value for `CCN(c1nccnc1CNc1nc(-c2cc(F)c(O)cc2CC(F)(F)F)cc2[nH]nc(C(N)=O)c12)S(C)(=O)=O` [Example 80, 4-[({3-[ethyl(methylsulfonyl)amino]pyrazin-2-yl}methyl)amino]-6-[5-fluoro-4-hydroxy-2-(2,2,2-trifluoroethyl)phenyl]-1H-pyrazolo[4,3-c]pyridine-3-carboxamide] was 0.197 µM; that for `CCN(c1ccccc1CNc1nc(-c2cc(F)c(O)cc2CC(F)(F)F)cc2[nH]nc(C(N)=O)c12)S(=O)(=O)CC` [Example 82, 4-((2-(N-ethylethylsulfonamido)benzyl)amino)-6-(5-fluoro-4-hydroxy-2-(2,2,2-trifluoroethyl)phenyl)-1H-pyrazolo[4,3-c]pyridine-3-carboxamide] was 0.0209 µM. `CCN(c1ccc(F)cc1CNc1nc(-c2cc(F)c(O)cc2CC(F)(F)F)cc2[nH]nc(C(N)=O)c12)S(C)(=O)=O` [Example 83, 4-((2-(N-ethylmethylsulfonamido)-5-fluorobenzyl)amino)-6-(5-fluoro-4-hydroxy-2-(2,2,2-trifluoroethyl)phenyl)-1H-pyrazolo[4,3-c]pyridine-3-carboxamide] yielded a half-maximal inhibitory concentration (IC50) of 0.03 µM.
